From patent US20120058499A1, “Bioluminescent Detection of Protease Activity” (priority 2010, published 2012)

Experiments:
Type in all cases: biochemical
[1] = molecular target: T1, UCHL3 (Homo sapiens, UniProt P15374); test: Isopeptidase cleavage of substrates (DUB-Glo luminescence / fluorescence), S/B; conditions: for signal to background (S/B) ratio: 30 minutes
T1 sequence (P15374 1-230): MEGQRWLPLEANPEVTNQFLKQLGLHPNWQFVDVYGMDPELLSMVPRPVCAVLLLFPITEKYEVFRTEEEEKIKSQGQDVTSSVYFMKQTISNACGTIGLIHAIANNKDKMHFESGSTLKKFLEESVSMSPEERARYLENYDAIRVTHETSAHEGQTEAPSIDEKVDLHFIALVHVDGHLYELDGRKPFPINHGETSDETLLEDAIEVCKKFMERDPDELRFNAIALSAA
Experimental: (§1) The Ub-amino-luciferin substrate was compared to the Z-Arg-Leu-Arg-Gly-Gly (SEQ ID NO: 1)-amino-luciferin substrate (Promega DUB-Glo™ substrate) to determine the limit of detection of the activities of four different isopeptidases (UCHL3, USP2core, USP7, and USP8). For all enzymes, these two substrates were tested in parallel using the DUB-Glo™ assay system (Promega) according to the manufacturer's instructions. All enzymes were diluted into 50 mM HEPES, pH 7.5, 10 mM DTT, 0.1% Prionex (Sigma-Aldrich). For testing Z-Arg-Leu-Arg-Gly-Gly (SEQ ID NO: 1)-amino-luciferin, final isopeptidase concentrations were as follows: UCHL3 equal to approximately 0.35 to 50 nM; USP2core equal to approximately 10 to 500 nM, USP7 equal to approximately 0.1 to 50 nM, and USP8 equal to approximately 20 to 500 nM. For testing Ub-amino-luciferin, final isopeptidase concentrations were as follows: UCHL3 equal to approximately 0.05 to 50 pM; USP2core, USP7, and USP8 equal to approximately 0.5 to 500 pM. Reactions were assembled through addition of 50 μl of diluted enzyme and 50 μl of DUB-Glo™ reaction mixture supplemented with either Z-Arg-Leu-Arg-Gly-Gly (SEQ ID NO: 1)-amino-luciferin (final concentration of 20 μM) or Ub-amino-luciferin (final concentration of 100 nM). The signal in relative luminescence units (RLUs) was measured at 30 minutes from reaction assembly on an Envision multi-label plate reader (Perkin Elmer). The signal to background ratio (S/B) was calculated as (maximum signal−signal in absence of enzyme)/(signal in absence of enzyme).
(§2) The Ub-amino-luciferin (Ub-LUC) substrate was compared to the Ub-AMC substrate (FIG. 3) and the Ub-Rhodamine110 (Ub-Rho) substrate (FIG. 4), to determine the limit of detection for the activities of four different isopeptidases (UCHL3, USP2core, USP7, and USP8). All enzymes were diluted into 50 mM Tris, pH 8.0, 5 mM DTT, 0.05% (w/v) CHAPS. Final isopeptidase concentrations were as follows: UCHL3 equal to approximately 2 pM to 40 pM; USP2core, USP7, and USP8 were equal to approximately 10 to 1000 nM. Either Ub-AMC or Ub-Rhodamine110 (final concentration equal to 250 nM) were diluted into 50 mM Tris, pH 8.0, 5 mM DTT, 0.05% (w/v) CHAPS. Reactions were assembled through the addition of 50 μl diluted isopeptidase to 50 μl of either Ub-AMC or Ub-Rhodamine110, and the signal in relative fluorescence units (RFUs) was measured at 30 minutes on an Envision multi-label plate reader (Perkin Elmer). For Ub-AMC, fluorescence was monitored with filters corresponding to excitation at 340 nm and emission at 460 nm. For Ub-Rhodamine110, fluorescence was monitored with filters corresponding to excitation at 485 nm and emission at 531 nm. The signal to background (S/B) was calculated as (maximum signal−signal in absence of enzyme)/(signal in absence of enzyme).

[2] = test system: UCHL3, USP2core, USP7, and USP8; test: Limit of detection for four isopeptidases, Ub-LUC vs Ub-AMC and Ub-Rhodamine110; conditions: the four enzymes
Experimental: The Ub-amino-luciferin substrate was compared to the Z-Arg-Leu-Arg-Gly-Gly (SEQ ID NO: 1)-amino-luciferin substrate (Promega DUB-Glo™ substrate) to determine the limit of detection of the activities of four different isopeptidases (UCHL3, USP2core, USP7, and USP8). For all enzymes, these two substrates were tested in parallel using the DUB-Glo™ assay system (Promega) according to the manufacturer's instructions. All enzymes were diluted into 50 mM HEPES, pH 7.5, 10 mM DTT, 0.1% Prionex (Sigma-Aldrich). […] The signal in relative luminescence units (RLUs) was measured at 30 minutes from reaction assembly on an Envision multi-label plate reader (Perkin Elmer). The signal to background ratio (S/B) was calculated as (maximum signal−signal in absence of enzyme)/(signal in absence of enzyme).
The Ub-amino-luciferin (Ub-LUC) substrate was compared to the Ub-AMC substrate (FIG. 3) and the Ub-Rhodamine110 (Ub-Rho) substrate (FIG. 4), to determine the limit of detection for the activities of four different isopeptidases (UCHL3, USP2core, USP7, and USP8). […] Reactions were assembled through the addition of 50 μl diluted isopeptidase to 50 μl of either Ub-AMC or Ub-Rhodamine110, and the signal in relative fluorescence units (RFUs) was measured at 30 minutes on an Envision multi-label plate reader (Perkin Elmer). […]

[3] = molecular target: T2, USP2core (Homo sapiens, UniProt O75604); test: Isopeptidase cleavage of substrates (DUB-Glo luminescence / fluorescence), S/B; conditions: USP2core 0.5 nM
T2 construct: USP2core (the common catalytic core domain of the two isoforms of USP2, USP2a and USP2b)
T2 sequence (O75604 267-599 limits assumed): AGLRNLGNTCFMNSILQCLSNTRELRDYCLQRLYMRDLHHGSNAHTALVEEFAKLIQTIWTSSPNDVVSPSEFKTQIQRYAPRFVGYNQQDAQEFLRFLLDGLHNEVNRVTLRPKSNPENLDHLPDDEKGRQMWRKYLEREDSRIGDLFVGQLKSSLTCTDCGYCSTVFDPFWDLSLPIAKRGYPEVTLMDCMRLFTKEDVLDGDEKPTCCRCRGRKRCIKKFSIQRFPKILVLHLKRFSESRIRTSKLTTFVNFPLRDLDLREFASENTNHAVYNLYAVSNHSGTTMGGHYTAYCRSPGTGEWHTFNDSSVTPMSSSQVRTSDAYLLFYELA
Experimental: as §1, §2

[4] = test system: Otub2, JosD1, JosD2, AMSH, Ataxin3, Ataxin3-like, UCHL5, USP20, and USP14; test: Substrate comparison on panel of nine isopeptidases
Experimental: For Ub-AMC and Ub-Rhodamine110, all enzymes were diluted into 50 mM Tris, pH 8.0, 5 mM DTT, 0.05% CHAPS to a final concentration of 10 nM. […] Either Ub-AMC or Ub-Rhodamine110 (final reaction concentration equal to 250 nM) were diluted into 50 mM Tris, pH 8.0, 5 mM DTT, 0.05% (w/v) CHAPS. […] For Ub-Rhodamine110, fluorescence was monitored with filters corresponding to excitation at 485 nm and emission at 531 nm.

Row | signal to background (S/B) ratio ([1]; substrate 20 μM, UCHL3 40 nM) | fold greater S/B compared to Z-RLRGG-amino-luciferin ([1]; UCHL3 activity) | limits of detection, fold lower than with Z-RLRGG-amino-luciferin ([1]; linear range of UCHL3-dependent S/B) | signal to background (S/B) ratio ([1]; substrate 100 nM, UCHL3 32 pM) | S/B increase relative to both Ub-AMC and Ub-Rhodamine110 [3] | Substance | fold greater S/B compared to Ub-rhodamine110 [2] | limit of detection (S/B>3) increased over Ub-rhodamine110 [2] | S/B towards Ub-amino-luciferin, fold higher than Ub-AMC / Ub-Rhodamine110 ([4]; equivalent molar concentrations, seven of nine DUBs (exceptions JosD2 and UCHL5)) | fold greater S/B compared to Z-RLRGG-amino-luciferin (DUB-Glo reagent) ([4]; range over panel of 9 isopeptidases, 10 nM)
1 | approximately 1000 |  |  |  |  | Z-Arg-Leu-Arg-Gly-Gly (SEQ ID NO: 1)-amino-luciferin [DUB-glo ™] |  |  |  | 
2 |  | about 1000 fold | approximately 1000 fold | 1000 | ~100 fold | Ub(1-76)-aminoluciferin [Ub-LUC] | more than 30 fold | more than 30 fold | 10-1000 fold | 10-1000 fold
